{"source": "paper PMC3914206", "assay_type_in_all_cases": "binding", "parameters_in_all_cases": "KINOMEscan: ABL1(F317L)-phosphorylated / KINOMEscan: ABL1(H396P)-nonphosphorylated / KINOMEscan: ABL1(H396P)-phosphorylated / KINOMEscan: ABL1(M351T)-phosphorylated / KINOMEscan: ABL1(T315I)-phosphorylated / KINOMEscan: ABL1-nonphosphorylated / KINOMEscan: ABL1-phosphorylated / KINOMEscan: ACVR2A / KINOMEscan: ACVR2B / KINOMEscan: ADCK3 / KINOMEscan: ADCK4 / KINOMEscan: AKT1 / KINOMEscan: AKT3 / KINOMEscan: ALK / KINOMEscan: ARK5 / KINOMEscan: AURKA / KINOMEscan: AURKC / KINOMEscan: BIKE / KINOMEscan: BMPR1A / KINOMEscan: BMPR1B / KINOMEscan: BMX / KINOMEscan: BRK / KINOMEscan: BRSK1 / KINOMEscan: BRSK2 / KINOMEscan: CAMK1 / KINOMEscan: CAMK1D / KINOMEscan: CAMK1G / KINOMEscan: CAMK2A / KINOMEscan: CAMK2B / KINOMEscan: AAK1 / KINOMEscan: CAMK2D / KINOMEscan: CAMK2G / KINOMEscan: ABL1(F317I)-nonphosphorylated / KINOMEscan: ABL1(F317I)-phosphorylated / KINOMEscan: ABL1(F317L)-nonphosphorylated: unit: % Ctrl", "details_in_all_cases": "Compound Concentration 10 µM", "key": {"[1]": {"molecular_target": "T1, panel of 442 kinases (Homo sapiens, UniProt P24723)", "T1 construct": "purchased KINOMEscan", "excerpt": "(§1) We assessed the selectivity of members of this scaffold using the KINOMEscan methodology across a near comprehensive panel of 442 kinases [[18,27]]."}, "[2]": {"molecular_target": "T2, panel of 442 kinases (Homo sapiens, UniProt P31749)", "T2 construct": "purchased KINOMEscan", "excerpt": "as §1"}, "[3]": {"molecular_target": "T3, panel of 442 kinases (Homo sapiens, UniProt P42336, Q546K)", "T3 construct": "purchased KINOMEscan", "T3 sequence (P42336 whole entry Q546K)": "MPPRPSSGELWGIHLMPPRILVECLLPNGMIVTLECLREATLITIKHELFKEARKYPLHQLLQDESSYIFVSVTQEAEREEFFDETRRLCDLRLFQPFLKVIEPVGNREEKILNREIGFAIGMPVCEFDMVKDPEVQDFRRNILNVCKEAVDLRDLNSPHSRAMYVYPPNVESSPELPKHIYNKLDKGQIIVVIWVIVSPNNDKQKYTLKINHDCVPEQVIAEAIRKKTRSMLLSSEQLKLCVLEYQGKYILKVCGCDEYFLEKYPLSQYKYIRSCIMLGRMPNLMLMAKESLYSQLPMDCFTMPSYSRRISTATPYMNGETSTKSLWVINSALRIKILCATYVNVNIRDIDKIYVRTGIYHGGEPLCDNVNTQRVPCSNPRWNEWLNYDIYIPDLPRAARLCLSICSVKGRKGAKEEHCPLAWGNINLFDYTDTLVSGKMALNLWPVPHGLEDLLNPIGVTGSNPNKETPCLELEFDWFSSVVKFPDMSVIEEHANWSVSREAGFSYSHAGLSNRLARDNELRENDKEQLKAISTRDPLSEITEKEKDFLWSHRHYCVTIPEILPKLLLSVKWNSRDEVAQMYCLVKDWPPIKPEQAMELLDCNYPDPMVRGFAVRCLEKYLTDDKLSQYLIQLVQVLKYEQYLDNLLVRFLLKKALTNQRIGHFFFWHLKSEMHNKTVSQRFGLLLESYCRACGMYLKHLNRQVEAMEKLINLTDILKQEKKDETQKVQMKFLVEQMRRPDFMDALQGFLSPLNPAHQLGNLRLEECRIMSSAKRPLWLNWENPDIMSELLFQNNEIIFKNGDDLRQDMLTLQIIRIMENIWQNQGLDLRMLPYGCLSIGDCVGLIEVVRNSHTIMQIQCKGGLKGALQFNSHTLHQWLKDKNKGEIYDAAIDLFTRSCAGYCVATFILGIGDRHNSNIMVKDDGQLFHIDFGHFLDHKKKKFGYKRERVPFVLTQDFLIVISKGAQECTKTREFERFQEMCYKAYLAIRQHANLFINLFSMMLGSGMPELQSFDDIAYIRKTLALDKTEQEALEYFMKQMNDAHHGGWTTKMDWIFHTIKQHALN", "excerpt": "as §1"}, "[4]": {"molecular_target": "T4, panel of 442 kinases (Homo sapiens, UniProt Q8N568)", "T4 construct": "purchased KINOMEscan", "excerpt": "as §1"}}, "data": [{"smiles": "COc1cc(C(=O)N2CCC(N3CCN(C)CC3)CC2)ccc1Nc1ncc2c(n1)N(C)c1ccccc1C(=O)N2C", "note": "[15 (LRRK2-IN-1)]", "values": [{"measurement": "KINOMEscan: PRKCH", "setting": "[1]", "result": 100}, {"measurement": "KINOMEscan: AKT1", "setting": "[2]", "result": 79}, {"measurement": "KINOMEscan: PIK3CA(Q546K)", "setting": "[3]", "result": 91}, {"measurement": "KINOMEscan: DCAMKL2", "setting": "[4]", "result": 0.45}]}, {"smiles": "COc1cc(C(=O)N2CCC(N3CCN(C)CC3)CC2)ccc1Nc1ncc2c(n1)N1CCc3cccc(c31)C(=O)N2C", "note": "[Compound 24]", "values": [{"measurement": "KINOMEscan: PRKCH", "setting": "[1]", "result": 84}, {"measurement": "KINOMEscan: AKT1", "setting": "[2]", "result": 90}, {"measurement": "KINOMEscan: PIK3CA(Q546K)", "setting": "[3]", "result": 98}, {"measurement": "KINOMEscan: DCAMKL2", "setting": "[4]", "result": 1.2}]}, {"smiles": "COc1cc(C(=O)N2CCC(N3CCN(C)CC3)CC2)ccc1Nc1ncc2c(n1)N(C1CCCC1)c1ccccc1C(=O)N2C", "note": "[Compound 25, 11-cyclopentyl-2-((2-methoxy-4-(4-(4-methylpiperazin-1-yl)piperidine-1-carbonyl)phenyl)amino)-5-methyl-5H-benzo[e]pyrimido[5,4-b][1,4]diazepin-6(11H)-one]", "values": [{"measurement": "KINOMEscan: PRKCH", "setting": "[1]", "result": 100}, {"measurement": "KINOMEscan: AKT1", "setting": "[2]", "result": 100}, {"measurement": "KINOMEscan: PIK3CA(Q546K)", "setting": "[3]", "result": 100}, {"measurement": "KINOMEscan: DCAMKL2", "setting": "[4]", "result": 1.1}]}, {"smiles": "CCOc1cc(C(=O)N2CCC(N3CCN(C)CC3)CC2)ccc1Nc1ncc2c(n1)N(C1CCCC1)c1ccccc1C(=O)N2C", "note": "[Compound 26]", "values": [{"measurement": "KINOMEscan: PRKCH", "setting": "[1]", "result": 100}, {"measurement": "KINOMEscan: AKT1", "setting": "[2]", "result": 100}, {"measurement": "KINOMEscan: PIK3CA(Q546K)", "setting": "[3]", "result": 99}, {"measurement": "KINOMEscan: DCAMKL2", "setting": "[4]", "result": 3.6}]}]}
